# Assays:
# Details in all cases: 8-24 hr
# [1] = test system: FKBP-TLR5/FRB-TLR5 model receptor system; assay: NFκβ activity of FKBP-TLR5/FRB-TLR5 heterodimerization system in Jurkat-NFκβ-GFP reporter cells; assay type: cell-based, human
# Description: (§1) In each of the following examples, standard molecular cloning techniques were performed to assemble nucleic acid sequences encoding components of chimeric transmembrane receptor polypeptides onto plasmid backbones. Plasmids were transfected into HEK293T cells to create lentivirus. Lentivirus was transduced into all cell lines to create receptor engineered cells. Presence of the receptor was determined by a fluorescent reporter. Receptor engineered Jurkat cells or Jurkat-NFκβ-GFP and/or Jurkat-NFAT-GFP reporter cells were treated with activator for 8-24 hr. Receptor activity was measured by antibody staining or GFP expression via flow cytometry.
# The receptor was further modified to activate upon heterodimerization (A/B system) by dimerizing two different receptor constructs. FKBP heterodimerizes with FKBP-rapamycin-binding (FRB, protein fragment of human mTOR) with the addition of AP21967 (protein-protein interaction inducing macrocyclic small molecule), and an FKBP-TLR5/FRB-TLR5 model receptor system was engineered and activated with AP21967.
# [2] = test system: nanobody-fused chimeric transmembrane receptor polypeptide (Nb-TLR5); assay: NFκβ activity of Nb-TLR5 receptor-engineered Jurkat-NFκβ-GFP reporter cells; assay type: cell-based
# Description: as §1
# The receptor ECD was also expanded beyond endogenous proteins to engineered nanobodies that bind to small molecules. For example, FIG. 8 presents results for a nanobody-fused chimeric transmembrane receptor polypeptide (Nb-TLR5) engineered and activated by treatment with the asymmetric monomeric small molecule, caffeine. The graph of FIG. 8 plots NFκβ activity for receptor-engineered Jurkat-NFκβ-GFP reporter cells treated with or without caffeine activator for 8-24 hr.
# [3] = test system: truncated FKBP-TLR5 receptors; assay: NFκβ activity of Jurkat-NFκβ-GFP reporter cells with truncated FKBP-TLR5 receptor constructs; assay type: cell-based, human
# Chain of truncated FKBP-TLR5 receptors (P62942 2-108 F37V limits assumed): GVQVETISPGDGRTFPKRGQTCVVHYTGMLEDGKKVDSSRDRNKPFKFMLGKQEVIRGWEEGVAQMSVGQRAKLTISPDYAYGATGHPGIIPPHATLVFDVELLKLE
# Description: as §1
# To determine where to truncate the TLR5 ECD such that the binding domain could be redirected to expand the soluble factor repertoire, the ECD was also methodically truncated at specific locations prior to fusing to FKBP. […] The graph of FIG. 3 plots the Nκβ activity for Jurkat-NFKκβ-GFP reporter cells engineered with or without truncated receptor constructs and treated with AP20187 activator for 8-24 hr. The graph of FIG. 4 plots the NFκβ activity for Jurkat-NFκβ-GFP reporter cells engineered with or without truncated receptor constructs and treated with Flagellin activator for 8-24 hr. […]
compound,measurement,setting,value
CO[C@H]1[C@@H](O)[C@H](C)C[C@H](C)/C=C/C=C/C=C(\C)[C@@H](c2c[nH]c3c(C)cccc23)C[C@@H]2CC[C@@H](C)[C@@](O)(O2)C(=O)C(=O)N2CCCC[C@H]2C(=O)O[C@H]([C@H](C)C[C@@H]2CC[C@@H](O)[C@H](OC)C2)C[C@H](O)[C@H](C)/C=C(\C)[C@H]1O [AP21967],NFκβ activity (FIG. 7),[1],intramembrane signal pathway activation
Cn1c(=O)c2c(ncn2C)n(C)c1=O [caffeine],NFκβ activity (FIG. 8),[2],activated
flagellin,"receptor activation, NFκβ activity (FIGS. 3-5)",[3],not
